Measured values published in PubChem BioAssay (NCI).
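Following 48 hours of exposure in 96-well plates, responses at five concentrations were used to interpolate endpoints linearly. Here, GI50 denotes the concentration required for 50% inhibition of growth. TGI denotes the concentration required for complete inhibition of growth.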

Tests used:
Test in all cases: inhibition of tumour cell growth, NCI panel, 48 h
[1] = system: 786-0 renal
[2] = system: A498 renal
[3] = system: A549 NSCLC
[4] = system: ACHN renal
[5] = system: BT-549 breast
[6] = system: CAKI-1 renal
[7] = system: CCRF-CEM leukemia
[8] = system: COLO 205 colon
[9] = system: DU-145 prostate
[10] = system: EKVX NSCLC
[11] = system: HCC-2998 colon
[12] = system: HCT-116 colon
[13] = system: HCT-15 colon
[14] = system: HL-60(TB) leukemia
[15] = system: HOP-62 NSCLC
[16] = system: HOP-92 NSCLC
[17] = system: HS 578T breast
[18] = system: HT29 colon
[19] = system: IGROV1 ovarian
[20] = system: K-562 leukemia
[21] = system: KM12 colon
[22] = system: LOX IMVI melanoma
[23] = system: M14 melanoma
[24] = system: MALME-3M melanoma
[25] = system: MCF7 breast
[26] = system: MDA-MB-231 breast
[27] = system: MDA-MB-435
[28] = system: MOLT-4 leukemia
[29] = system: NCI-H226 lung
[30] = system: NCI-H23 lung
[31] = system: NCI-H460 lung
[32] = system: NCI-H522 lung
[33] = system: NCI/ADR-RES ovarian
[34] = system: OVCAR-3 ovarian
[35] = system: OVCAR-4 ovarian
[36] = system: OVCAR-5 ovarian
[37] = system: PC-3 prostate
[38] = system: RPMI-8226 leukemia
[39] = system: RXF 393 renal
[40] = system: SF-268 CNS
[41] = system: SF-295 CNS
[42] = system: SF-539 CNS
[43] = system: SK-MEL-2 melanoma
[44] = system: SK-MEL-28 melanoma
[45] = system: SK-MEL-5 melanoma
[46] = system: SK-OV-3 ovarian
[47] = system: SN12C renal
[48] = system: SNB-19 CNS
[49] = system: SNB-75 CNS
[50] = system: SW-620 colon
[51] = system: T-47D breast
[52] = system: TK-10 renal
[53] = system: U251 CNS
[54] = system: UACC-257 melanoma
[55] = system: UACC-62 melanoma
[56] = system: UO-31 renal
[57] = system: OVCAR-8 ovarian

## CCOC(=O)c1c(NC(=O)c2ccccc2)sc2c3c(ccc12)OCN(C)C3
[1]
  GI50: 1790 nM
  TGI: 3400 nM
[2]
  GI50: 1650 nM
  TGI: 3210 nM
[3]
  GI50: 1730 nM
  TGI: 3.56 µM
[4]
  GI50: 1580 nM
  TGI: 2980 nM
[5]
  GI50: 5.76 µM
  TGI: 19.5 µM
[6]
  GI50: 1590 nM
  TGI: 2.99 µM
[7]
  GI50: 1970 nM
  TGI: 5.75 µM
[8]
  GI50: 1770 nM
  TGI: 3700 nM
[9]
  GI50: 1670 nM
  TGI: 3120 nM
[10]
  GI50: 1650 nM
  TGI: 3.08 µM
[11]
  GI50: 1030 nM
  TGI: 2350 nM
[12]
  GI50: 1770 nM
  TGI: 3.27 µM
[13]
  GI50: 1200 nM
  TGI: 2510 nM
[14]
  GI50: 1810 nM
  TGI: 3880 nM
[15]
  GI50: 1770 nM
  TGI: 3.82 µM
[16]
  GI50: 1200 nM
  TGI: 2680 nM
[17]
  GI50: 1900 nM
  TGI: 4160 nM
[18]
  GI50: 2000 nM
  TGI: 4.25 µM
[19]
  GI50: 1640 nM
  TGI: 3.18 µM
[20]
  GI50: 694 nM
  TGI: 5.11 µM
[21]
  GI50: 1750 nM
  TGI: 3.3 µM
[22]
  GI50: 1620 nM
  TGI: 3.03 µM
[23]
  GI50: 1740 nM
  TGI: 3290 nM
[24]
  GI50: 1.78 µM
  TGI: 3.43 µM
[25]
  GI50: 1590 nM
  TGI: 3170 nM
[26]
  GI50: 1850 nM
  TGI: 3.52 µM
[27]
  GI50: 1640 nM
  TGI: 3020 nM
[28]
  GI50: 2090 nM
  TGI: 5.19 µM
[29]
  GI50: 1900 nM
  TGI: 4140 nM
[30]
  GI50: 1780 nM
  TGI: 3.78 µM
[31]
  GI50: 1870 nM
  TGI: 3530 nM
[32]
  GI50: 1660 nM
  TGI: 3.62 µM
[33]
  GI50: 1590 nM
  TGI: 3.32 µM
[34]
  GI50: 1790 nM
  TGI: 3.26 µM
[35]
  GI50: 1750 nM
  TGI: 3.13 µM
[36]
  GI50: 1710 nM
  TGI: 3.16 µM
[37]
  GI50: 1530 nM
  TGI: 3000 nM
[38]
  GI50: 1690 nM
  TGI: 3.87 µM
[39]
  GI50: 1570 nM
  TGI: 3.2 µM
[40]
  GI50: 1770 nM
  TGI: 3.59 µM
[41]
  GI50: 1740 nM
  TGI: 3230 nM
[42]
  GI50: 1630 nM
  TGI: 3050 nM
[43]
  GI50: 2070 nM
  TGI: 4.02 µM
[44]
  GI50: 1710 nM
  TGI: 3.15 µM
[45]
  GI50: 1740 nM
  TGI: 3140 nM
[46]
  GI50: 2160 nM
  TGI: 4.79 µM
[47]
  GI50: 1630 nM
  TGI: 3.22 µM
[48]
  GI50: 1560 nM
  TGI: 3.1 µM
[49]
  GI50: 1400 nM
  TGI: 2.74 µM
[50]
  GI50: 1630 nM
  TGI: 3.32 µM
[51]
  GI50: 1.76 µM
  TGI: 3.78 µM
[52]
  GI50: 1810 nM
  TGI: 3.54 µM
[53]
  GI50: 1680 nM
  TGI: 3.4 µM
[54]
  GI50: 1970 nM
  TGI: 3.85 µM
[55]
  GI50: 1700 nM
  TGI: 3.27 µM
[56]
  GI50: 1360 nM
  TGI: 2740 nM

## COc1ccccc1/C=C/C1=C(C)CCC(c2ccccc2OC)C1C (configuration not stated)
[1]
  GI50: 196 nM
  TGI: 2510 nM
[2]
  GI50: 92.3 nM
  TGI: 534 nM
[3]
  GI50: 223 nM
[4]
  GI50: 272 nM
  TGI: > 100000 nM
[5]
  GI50: 0.27 µM
  TGI: 1.73 µM
[6]
  GI50: 157 nM
  TGI: 7.69 µM
[7]
  GI50: 68.4 nM
  TGI: > 100 µM
[8]
  GI50: 210 nM
  TGI: 498 nM
[9]
  GI50: 220 nM
  TGI: 868 nM
[10]
  GI50: 119 nM
  TGI: > 100 µM
[11]
  GI50: 249 nM
  TGI: 1560 nM
[12]
  GI50: 108 nM
  TGI: 3.14 µM
[13]
  GI50: 129 nM
  TGI: > 100000 nM
[14]
  GI50: 262 nM
  TGI: 603 nM
[15]
  GI50: 153 nM
  TGI: 19.3 µM
[16]
  GI50: 632 nM
  TGI: > 100000 nM
[17]
  GI50: 112 nM
  TGI: 708 nM
[18]
  GI50: 167 nM
[19]
  GI50: 132 nM
  TGI: > 63.5 µM
[21]
  GI50: 87.9 nM
[22]
  GI50: 184 nM
  TGI: > 56.8 µM
[23]
  GI50: 160 nM
  TGI: 655 nM
[24]
  GI50: 11.9 µM
  TGI: > 100 µM
[25]
  GI50: 63.3 nM
  TGI: 1280 nM
[26]
  GI50: 157 nM
  TGI: 6.41 µM
[27]
  GI50: 59.5 nM
  TGI: 154 nM
[29]
  GI50: 223 nM
  TGI: 627 nM
[30]
  GI50: 188 nM
  TGI: 13.6 µM
[31]
  GI50: 278 nM
  TGI: 1270 nM
[32]
  GI50: 113 nM
[33]
  GI50: 105 nM
[35]
  GI50: 1370 nM
  TGI: > 100 µM
[36]
  GI50: 403 nM
  TGI: > 68.2 µM
[57]
  GI50: 137 nM
[37]
  GI50: 392 nM
  TGI: > 100000 nM
[38]
  GI50: 44.9 nM
  TGI: > 100 µM
[39]
  GI50: 110 nM
[40]
  GI50: 201 nM
  TGI: > 73 µM
[41]
  GI50: < 20.1 nM
  TGI: 1530 nM
[42]
  GI50: 83.3 nM
  TGI: 215 nM
[43]
  GI50: 224 nM
  TGI: > 100 µM
[44]
  GI50: 240 nM
  TGI: > 100 µM
[45]
  GI50: 122 nM
  TGI: 379 nM
[46]
  GI50: 382 nM
  TGI: > 100 µM
[47]
  GI50: 323 nM
  TGI: > 100 µM
[48]
  GI50: 226 nM
  TGI: > 100 µM
[49]
  GI50: 131 nM
  TGI: 76.5 µM
[50]
  GI50: 138 nM
  TGI: > 100 µM
[51]
  GI50: 4.36 µM
  TGI: > 100 µM
[52]
  GI50: 227 nM
  TGI: 45.1 µM
[53]
  GI50: 132 nM
  TGI: 22.5 µM
[54]
  TGI: > 89.8 µM
[55]
  GI50: 68.4 nM
  TGI: 40.3 µM
[56]
  GI50: 371 nM
  TGI: > 100000 nM
